Laboratory results from PubChem BioAssay AID1845209 (Molecular Pharmacology Branch, DTP, NCI, 2023).
pIC50: −log10 of the molar value. Where “and” joins values, the source holds several entries; their conditions need not be identical. Equal entries are not always repeated.

Tested on: NCI-H211 tumor spheroids, viability percent test/control
Test: Anticancer human tumor NCI-H211 cell line growth inhibition;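 further: spheroids exposed to agents for seven days before readout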
Details: spheroids with HUVEC and MSC; for viability, T/C: stronger effect = lower value
Description: Multicellular complex tumor spheroid response to DNA repair inhibitors in combination with DNA-damaging drugs
This study explores the anticancer activities of DNA-damaging drugs and inhibitors of DNA damage repair, both as single agents and in combinations. Complex tumor spheroids comprised of malignant cells, endothelial cells and mesenchymal stem cells served as an in vitro model for human solid tumors. This model system incorporates physiologically relevant features and patient-derived or established malignant cell lines with clinically relevant genetic alterations from many tumor types. Twenty-six patient-derived or established malignant cell lines were evaluated representing sarcoma, melanoma, small cell lung cancer (SCLC), non-small cell lung cancer (NSCLC), as well as bladder, ovarian and pancreatic cancers. The concentration ranges selected for each drug and investigational agent were based upon clinically achievable concentrations if the clinical Cmax of the agent was known.
Compounds. The drugs and compounds olaparib (NSC753686), talazoparib (NSC767125), berzosertib (NSC777718), elimusertib (NSC800525), nedisertib (NSC802822), VX-984 (NSC792969), AZD-1390 (NSC803789), temozolomide (NSC362856), topotecan (NSC609699), trabectedin (NSC813783), staurosporine (NSC755774), and gemcitabine (NSC613327) were obtained from the National Cancer Institute (NCI) Developmental Therapeutics Program Chemical Repository. The FDA-approved anticancer drug set is available from the Developmental Therapeutics Program at https://dtp.cancer.gov/organization/dscb/obtaining/available_plates.htm. […] The stock solutions were prepared in dimethyl sulfoxide (DMSO, Sigma-Aldrich, St. Louis, MO, cat. D2650) at 400-fold the tested concentration and stored at -70 degrees C. Prior to their use, the stock solutions were diluted in fresh medium and the final DMSO concentration in the assay was 0.25% (v/v). All drugs and investigational agents were tested over a range starting from a high concentration at or near the clinical Cmax and decreasing in half-log increments. If the clinical Cmax for an agent had not been determined, the highest concentration tested was 10 microM.
Cell Lines. The patient-derived cancer cell (PDC) lines: 156681-154-R-J1-PDC, 283228-195-R-J1-PDC, 287954-098-R-J1-PDC, 292921-168-R-J2-PDC, 349418-098-R-PDC, 425362-245-T-J1-PDC, 556581-035-R-J1-PDC, and BL0293-F563-PDC were received from the NCI Patient-Derived Models Repository (PDMR, https://pdmr.cancer.gov). The established cell lines HS-SY-2 (RRID:CVCL_8719), MPNST, and SYO-1 (RRID:CVCL_7146) were obtained from the Sloan Kettering Institute. The alveolar soft parts sarcoma cell line ASPS-1 (RRID:CVCL_S738) was established at the NCI and grown from internal seed stocks. The following established cell lines were purchased from the American Type Culture Collection (ATCC, Manassas, VA): G-401 (ATCC, cat. CRL-1441, RRID:CVCL_0270), SW982 (ATCC, cat. HTB-93, RRID:CVCL_1734), VA-ES-BJ (ATCC, cat. CRL-2138, RRID:CVCL_1785), NCI-H719 (ATCC, cat. CRL-5837, RRID:CVCL_1582), NCI-H196 (ATCC, cat. CRL-5823, RRID:CVCL_1509), NCI-H841 (ATCC, cat. CRL-5845, RRID:CVCL_1595), NCI-H1618 (ATCC, cat. CRL-5879, RRID:CVCL_1480), NCI-H1876 (ATCC, cat. CRL-5902, RRID:CVCL_1503), DMS 114 (ATCC, cat. CRL-2066; RRID:CVCL_1174), NCI-H211 (ATCC, cat. CRL-5824; RRID:CVCL_1529), and SW 1271 (ATCC, cat. CRL-2177, RRID:CVCL_1716). The small cell lung cancer cell line COR-L88 was purchased from Sigma-Aldrich (cat. 92031917-1VL, RRID:CVCL_1141). The non-small cell lung cancer cell lines NCI-H226 (RRID:CVCL_1544) and NCI-H322M (RRID:CVCL_1557) were established at the NCI and grown from internal seed stocks. Pooled donor human umbilical vein endothelial cells (HUVEC, Lonza, cat. CC-2519) and human mesenchymal stem cells (hMSC, Lonza, cat. PT-2501) were purchased from Lonza (Walkersville, MD).
Cell Culture. All cells were maintained in an incubator at 37 degrees C and 5% CO2 with 95% humidity. […]

COc1cc(C)[nH]c(=O)c1CN1CCc2c(Cl)cc(C(OC)C3COC3)c(Cl)c2C1=O (centres undefined)
viability, T/C (compound 0.0316 µM): 98.9% and 97.3% and 103%
viability, T/C (compound 0.1 µM): 92.9% and 105% and 99.4%
viability, T/C (compound 0.316 µM): 81.8% and 93.7% and 96.8%
viability, T/C (compound 1 µM): 92.6% and 78.5% and 88.5%
viability, T/C (compound 3.16 µM): 87.9% and 84.4% and 87.8%
viability, T/C (compound 10 µM): 83.7% and 89.1% and 85.7%
pIC50 (curve of compound): < 5.00

O=C(c1cc(Cc2n[nH]c(=O)c3ccccc23)ccc1F)N1CCN(C(=O)C2CC2)CC1
viability, T/C (compound 0.0949 µM): 36% and 73% and 92.9%
viability, T/C (compound 0.3 µM): 30.1% and 42.2% and 63.5%
viability, T/C (compound 0.949 µM): 14.9% and 5.83% and 9.79%
viability, T/C (compound 3 µM): 9.02% and 1.22% and 0.8%
viability, T/C (compound 9.49 µM): 8.37% and 1.02% and 0.69%
viability, T/C (compound 30 µM): 7.89% and 0.93% and 0.73%
pIC50 (curve of compound): > 7.02 and 6.65 and 6.40

CC1COCCN1c1cc(-c2ccnn2C)c2ccnc(-c3ccn[nH]3)c2n1 (centres undefined) + COc1cc2c(cc1O)CCNC21CSC2c3c(OC(C)=O)c(C)c4c(c3C(COC1=O)N1C(O)C3Cc5cc(C)c(OC)c(O)c5C(C21)N3C)OCO4
pIC50 (curve of first compound, second compound 30 pM): > 7.50
pIC50 (curve of first compound, second compound 94.9 pM): > 7.50
pIC50 (curve of first compound, second compound 0.0003 µM): > 7.50
pIC50 (curve of first compound, second compound 0.000949 µM): > 7.50
pIC50 (curve of first compound, second compound 0.003 µM): > 7.50
viability, T/C (second compound 30 pM, first compound 0.0316 µM): 0.76%
viability, T/C (second compound 30 pM, first compound 0.1 µM): 0.64%
viability, T/C (second compound 30 pM, first compound 0.316 µM): 0.52%
viability, T/C (second compound 30 pM, first compound 1 µM): 0.4%
viability, T/C (second compound 30 pM, first compound 3.16 µM): 0.43%
viability, T/C (second compound 30 pM, first compound 10 µM): 0.49%
viability, T/C (second compound 94.9 pM, first compound 0.0316 µM): 0.75%
viability, T/C (second compound 94.9 pM, first compound 0.1 µM): 0.74%
viability, T/C (second compound 94.9 pM, first compound 0.316 µM): 0.62%
viability, T/C (second compound 94.9 pM, first compound 1 µM): 0.38%
viability, T/C (second compound 94.9 pM, first compound 3.16 µM): 0.35%
viability, T/C (second compound 94.9 pM, first compound 10 µM): 0.42%
viability, T/C (second compound 0.0003 µM, first compound 0.0316 µM): 0.75%
viability, T/C (second compound 0.0003 µM, first compound 0.1 µM): 0.89%
viability, T/C (second compound 0.0003 µM, first compound 0.316 µM): 0.57%
viability, T/C (second compound 0.0003 µM, first compound 1 µM): 0.78%
viability, T/C (second compound 0.0003 µM, first compound 3.16 µM): 0.3%
viability, T/C (second compound 0.0003 µM, first compound 10 µM): 0.36%
viability, T/C (second compound 0.000949 µM, first compound 0.0316 µM): 0.61%
viability, T/C (second compound 0.000949 µM, first compound 0.1 µM): 0.63%
viability, T/C (second compound 0.000949 µM, first compound 0.316 µM): 0.48%
viability, T/C (second compound 0.000949 µM, first compound 1 µM): 0.81%
viability, T/C (second compound 0.000949 µM, first compound 3.16 µM): 0.36%
viability, T/C (second compound 0.000949 µM, first compound 10 µM): 0.71%
viability, T/C (second compound 0.003 µM, first compound 0.0316 µM): 0.1%
viability, T/C (second compound 0.003 µM, first compound 0.1 µM): 0.1%
viability, T/C (second compound 0.003 µM, first compound 0.316 µM): 0.31%
viability, T/C (second compound 0.003 µM, first compound 1 µM): 0.1%
viability, T/C (second compound 0.003 µM, first compound 3.16 µM): 0.46%
viability, T/C (second compound 0.003 µM, first compound 10 µM): 0.54%
